Data published in ChEMBL document CHEMBL1129374 (J Med Chem, 1996).

Legend:
Dihydrofolate reductase = target: T1, Dihydrofolate reductase (Mus musculus, UniProt P00375); assay: compound was evaluated for the inhibitory activity against Dihydrofolate reductase in permeabilised L1210 cells.; type: cell-based
T1 sequence (P00375 whole entry): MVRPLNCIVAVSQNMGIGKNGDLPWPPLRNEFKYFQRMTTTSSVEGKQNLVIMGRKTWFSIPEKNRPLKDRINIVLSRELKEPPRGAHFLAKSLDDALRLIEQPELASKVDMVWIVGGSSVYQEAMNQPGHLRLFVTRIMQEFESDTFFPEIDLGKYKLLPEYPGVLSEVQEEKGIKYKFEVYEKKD

L1210 [1] = assay: Compound was evaluated for the inhibition of L1210 murine leukemia cell growth.; type: functional, cell-based; conditions: Mus musculus
[2] = target: T2, Folylpolyglutamate synthase, mitochondrial (Homo sapiens, UniProt Q05932); assay: Compound was evaluated for the inhibitory activity against Folyl-polyglutamate synthase from CCRF-CEM human leukemia cells.; type: cell-based
T2 sequence (Q05932 whole entry): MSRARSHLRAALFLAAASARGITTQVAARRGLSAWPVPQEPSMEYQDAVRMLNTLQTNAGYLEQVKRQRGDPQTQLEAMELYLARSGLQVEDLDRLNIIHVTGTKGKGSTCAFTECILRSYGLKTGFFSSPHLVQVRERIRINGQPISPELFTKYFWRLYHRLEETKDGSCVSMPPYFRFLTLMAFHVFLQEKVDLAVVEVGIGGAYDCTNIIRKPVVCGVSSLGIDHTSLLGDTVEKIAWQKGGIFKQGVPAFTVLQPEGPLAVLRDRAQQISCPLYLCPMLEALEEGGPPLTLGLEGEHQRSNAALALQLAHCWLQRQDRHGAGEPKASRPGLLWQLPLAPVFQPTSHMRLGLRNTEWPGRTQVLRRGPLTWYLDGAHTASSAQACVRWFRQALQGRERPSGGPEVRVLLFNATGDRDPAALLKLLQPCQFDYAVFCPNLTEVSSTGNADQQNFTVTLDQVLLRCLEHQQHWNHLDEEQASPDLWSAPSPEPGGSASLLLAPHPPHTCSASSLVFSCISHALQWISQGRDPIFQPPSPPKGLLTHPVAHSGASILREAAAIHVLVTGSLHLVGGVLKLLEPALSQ

L1210 [3] = assay: Compound was evaluated for the inhibition of L1210 murine leukemia cell growth.(In this study); conditions: Mus musculus
L1210 [4] = assay: Compound was evaluated for the inhibition of L1210 murine leukemia cell growth.(From ref 12b); conditions: Mus musculus

Row | Compound | IC50 (Dihydrofolate reductase) [nM] | IC50 (L1210 [1]) [nM] | IC50 [2] [nM] | IC50 (L1210 [3]) [nM] | IC50 (L1210 [4]) [nM]
1 | CN(Cc1cnc2nc(N)nc(N)c2n1)c1ccc(C(=O)NC(Cc2cn(CC(=O)O)cn2)C(=O)O)cc1 (configuration not stated) | 370 | 150 | > 200000 | – | –
2 | CN(Cc1cnc2nc(N)nc(N)c2n1)c1ccc(C(=O)NC(Cc2cnc[nH]2)C(=O)O)cc1 (configuration not stated) | 1300 | 91 | > 200000 | – | –
3 | Nc1nc2ncc(CNc3ccc(C(=O)NC(Cc4cnc[nH]4)C(=O)O)cc3)nc2c(=O)[nH]1 (configuration not stated) | > 100000 | > 100000 | > 200000 | – | –
4 | CN(Cc1cnc2nc(N)nc(N)c2n1)c1ccc(C(=O)N[C@@H](CCC(=O)O)C(=O)O)cc1 [METHOTREXATE] | – | – | 3200 | 7 | 1300
